US11840560B2, “Prodrugs and uses thereof” (Novo Nordisk A/S, priority 2022, dated 2023)
*1 amine or outer side, *2 acyl side, *3 side chain or, on linkers, in order; H or OH if unused. Where a SMILES comes first, the peptide text is derived from it. Side-chain parts run from the residue outwards. [ ]: non-standard residue; d: D form. The star is where a group is joined. N(2-Aminoethyl)Gly = O=C(CN(CCN[*:3])[*:1])[*:2]; C18 diacid = O=C(O)CCCCCCCCCCCCCCCCC(=O)*; C16 diacid = O=C(O)CCCCCCCCCCCCCCC(=O)*; γGlu = O=C(O)[C@H](CCC(=O)[*:2])N[*:1]; εLys = N[C@@H](CCCCN[*:1])C(=O)[*:2]; AEEA = NCCOCCOCC(=O)O; Aib = CC(C)(N)C(=O)O; Sar = CNCC(=O)O

Tests used:
in vivo = assay: in vivo; parameters: species or system beagle dogs; settings: dog, po, 300 mg; for Tmax / half-life: male, beagle
Experimental: The purpose of this method is to determine the terminal half-life and plasma exposure in vivo of the compounds of the present invention after p.o. administration to beagle dogs, i.e. the terminal half-life and concentration of test substance that reaches circulation with time. This is done in a pharmacokinetic (PK) study, where these parameters of the compound in question are determined. By terminal half-life is generally meant the period of time it takes to halve a certain plasma concentration, measured after the initial distribution phase.
Tablet compositions comprising the test compounds obtained from Example 1 and SNAC (sodium N-(8-(2-hydroxybenzoyl)amino)caprylate) were prepared according to methods known to the person skilled in the art by mixing test substance with roller compacted SNAC and magnesium stearate as e.g. described in WO 2019/149880. Each tablet was comprised of 7.7 mg magnesium stearate, 2-4 mg of each compound tested, and 300 mg SNAC.
Male beagle dogs, 1-7 years of age and weighing 9-17 kg during the study period, were included in the study. The dogs were dosed in a fasting state. The dogs were group housed in pens (12 hours light: 12 hours dark), and fed individually and restrictedly once daily with Royal Canin Medium Adult dog food (Royal Canin Products, China Branch, or Brogaarden A/S, Denmark). The dogs were used for repeated PK studies with a suitable wash-out period between successive dosing. An appropriate acclimatisation period was given prior to initiation of the first PK study. All handling, dosing, and blood sampling of the animals were performed by trained and skilled staff. Before the studies, the dogs were fasted overnight and from 0 to 4 hours after dosing. The dogs were restricted to water 1 hour before dosing until 4 hours after dosing, but otherwise had adlibitum access to water during the whole period.
The compositions were administered by a single oral dosing to the dogs in groups of 6-8 dogs. The tablets were administered in the following manner: 10 min prior to tablet administration, the dogs may be dosed subcutaneously with approximately 3 nmol/kg of SEQ ID NO.: 7 ([…]), then tablets were placed in the back of the mouth of the dog to prevent chewing. The mouth was then closed, and 10 mL of tap water was given by syringe or gavage to facilitate swallowing of the tablet.
One blood sample was drawn before dosing, and additional samples were drawn at predefined time points after dosing, such as for up to 600 hours, to adequately cover the full plasma concentration-time absorption profile of the test substance. For each blood sample time point, approximately 0.8 mL of whole blood was collected in a 1.5 mL EDTA-coated tube, which was gently turned to mix the sample with EDTA. Blood samples were collected in EDTA buffer (8 mM) and then centrifuged at 4° C. and 2000 g for 10 minutes. Plasma was pipetted into Micronic tubes on dry ice, and kept at −20° C. or lower until analysis. Blood samples were taken as appropriate, for example from a venflon in the cephalic vein in the front leg for the first 2 hours and then with syringe from the jugular vein for the rest of the time points. The first few drops were allowed to drain from the venflon to avoid heparin saline from the venflon in the sample. All blood samples were collected into test tubes containing EDTA for stabilisation and kept on ice until centrifugation. Plasma was separated from whole blood by centrifugation and the plasma was stored at −20° C. or lower until analysis.
The plasma was analysed for test substance using LC-MS (Liquid Chromatography-Mass Spectrometry) as known to the person skilled in the art. […]

physchem = format: physicochemical; settings: buffer, pH 7.4
Experimental: The assay was performed to investigate the conversion half-life of prodrug to drug of the prodrugs of the invention. The conversion half-life was investigated in vitro at pH 7.4 upon incubation at 37° C.
Test compounds were dissolved to a concentration of 100 μM in phosphate-buffered saline (140 mM NaCl, 2.07 mM KCl, 8.05 mM Na2HPO4, 1.96 mM KH2PO4, pH 7.4). Solution pH was measured after dissolution and adjusted to pH 7.4 with aqueous NaOH if necessary. The solution was filtered through a 0.22 μm syringe filter, then incubated in a water bath at 37° C. Aliquots were withdrawn at defined timepoints, e.g. every 24-72 hours, for LCMS analysis.
LCMS analysis was performed using the procedure defined in LCMS_A above. The AUC of the prodrug, active drug, and DKP were determined using UV detection at 214 nm, and the ratio of prodrug AUC over total AUC of prodrug plus active drug plus DKP was calculated. The negative natural logarithm of this ratio was plotted over time, and a linear regression of this relationship was then performed.
The prodrug to drug conversion half-life of the compounds of the invention was measured as described in General Methods for Measuring Conversion Half-life.

## CC[C@H](C)[C@H](NC(=O)[C@H](CC(C)C)NC(=O)[C@H](Cc1c[nH]c2ccccc12)NC(=O)[C@H](CCC(N)=O)NC(=O)[C@@H](NC(=O)[C@H](Cc1ccccc1)NC(=O)[C@H](C)NC(=O)[C@H](CCCCNC(=O)COCCOCCNC(=O)COCCOCCNC(=O)CC[C@H](NC(=O)CCCCCCCCCCCCCCCCCCC(=O)O)C(=O)O)NC(=O)[C@H](CCC(N)=O)NC(=O)[C@H](C)NC(=O)[C@@H](NC(=O)[C@H](CCCCN)NC(=O)[C@H](CC(=O)O)NC(=O)[C@H](CC(C)C)NC(=O)C(C)(C)NC(=O)[C@@H](NC(=O)[C@H](CO)NC(=O)[C@H](Cc1ccc(O)cc1)NC(=O)[C@H](CC(=O)O)NC(=O)[C@H](CO)NC(=O)[C@@H](NC(=O)[C@H](Cc1ccccc1)NC(=O)[C@@H](NC(=O)CNC(=O)[C@H](CCC(=O)O)NC(=O)C(C)(C)NC(=O)[C@H](Cc1ccc(O)cc1)NC(=O)[C@@H](NC(=O)[C@@H](N)CCCCNC(=O)CC[C@H](NC(=O)CCCCCCCCCCCCCCC(=O)O)C(=O)O)C(C)C)[C@@H](C)O)[C@@H](C)O)[C@@H](C)CC)[C@@H](C)CC)C(C)C)C(=O)N[C@@H](C)C(=O)NCC(=O)NCC(=O)N1CCC[C@H]1C(=O)N[C@@H](CO)C(=O)N[C@@H](CO)C(=O)NCC(=O)N[C@@H](C)C(=O)N1CCC[C@H]1C(=O)N1CCC[C@H]1C(=O)N1CCC[C@H]1C(=O)N[C@@H](CO)C(N)=O [Non-converting compound 4]
In vivo
  AUC/Dose: 18.9 kg·h/L
  Cmax/Dose: 0.16 kg/L
  Tmax: 7 h
  half-life: 136 h

## CC[C@H](C)[C@H](NC(=O)[C@H](Cc1ccccc1)NC(=O)[C@H](CCC(=O)O)NC(=O)[C@H](CCCNC(=N)N)NC(=O)[C@H](C)NC(=O)[C@H](C)NC(=O)[C@H](CCC(N)=O)NC(=O)[C@H](CCC(=O)O)NC(=O)[C@H](CCC(=O)O)NC(=O)[C@H](CC(C)C)NC(=O)[C@H](CC(C)C)NC(=O)[C@@H](NC(=O)[C@H](CO)NC(=O)[C@H](Cc1ccc(O)cc1)NC(=O)[C@H](CC(=O)O)NC(=O)[C@H](CO)NC(=O)[C@@H](NC(=O)[C@H](Cc1ccccc1)NC(=O)[C@@H](NC(=O)CNC(=O)[C@H](CCC(=O)O)NC(=O)C(C)(C)NC(=O)[C@@H](N)Cc1ccc(O)cc1)[C@@H](C)O)[C@@H](C)O)[C@@H](C)CC)C(=O)N[C@@H](CCC(=O)O)C(=O)N[C@@H](Cc1c[nH]c2ccccc12)C(=O)N[C@@H](CC(C)C)C(=O)N[C@@H](CC(C)C)C(=O)N[C@@H](C)C(=O)NCC(=O)NCC(=O)N1CCC[C@H]1C(=O)N[C@@H](CO)C(=O)N[C@@H](CCCCNC(=O)[C@@H](N)CCCCNC(=O)[C@@H](N)CCCCNC(=O)CC[C@H](NC(=O)CCCCCCCCCCCCCCCCC(=O)O)C(=O)O)C(=O)NCC(=O)N[C@@H](C)C(=O)N1CCC[C@H]1C(=O)N1CCC[C@H]1C(=O)N1CCC[C@H]1C(=O)N[C@@H](CO)C(=O)O [Parent compound 3] (H-Y[Aib]EGTFTSDYSILLEEQAAREFIEWLLAGGPSK([εLys-εLys-γGlu-C18 diacid])GAPPPS-OH)
In vivo
  AUC/Dose: 21.4 kg·h/L
  Cmax/Dose: 0.22 kg/L

## CC[C@H](C)[C@H](NC(=O)[C@H](CC(C)C)NC(=O)[C@H](Cc1c[nH]c2ccccc12)NC(=O)[C@H](CCC(N)=O)NC(=O)[C@@H](NC(=O)[C@H](Cc1ccccc1)NC(=O)[C@H](C)NC(=O)[C@H](CCCCNC(=O)COCCOCCNC(=O)COCCOCCNC(=O)CC[C@H](NC(=O)CCCCCCCCCCCCCCCCCCC(=O)O)C(=O)O)NC(=O)[C@H](CCC(N)=O)NC(=O)[C@H](C)NC(=O)[C@@H](NC(=O)[C@H](CCCCN)NC(=O)[C@H](CC(=O)O)NC(=O)[C@H](CC(C)C)NC(=O)C(C)(C)NC(=O)[C@@H](NC(=O)[C@H](CO)NC(=O)[C@H](Cc1ccc(O)cc1)NC(=O)[C@H](CC(=O)O)NC(=O)[C@H](CO)NC(=O)[C@@H](NC(=O)[C@H](Cc1ccccc1)NC(=O)[C@@H](NC(=O)CNC(=O)[C@H](CCC(=O)O)NC(=O)C(C)(C)NC(=O)[C@@H](N)Cc1ccc(O)cc1)[C@@H](C)O)[C@@H](C)O)[C@@H](C)CC)[C@@H](C)CC)C(C)C)C(=O)N[C@@H](C)C(=O)NCC(=O)NCC(=O)N1CCC[C@H]1C(=O)N[C@@H](CO)C(=O)N[C@@H](CO)C(=O)NCC(=O)N[C@@H](C)C(=O)N1CCC[C@H]1C(=O)N1CCC[C@H]1C(=O)N1CCC[C@H]1C(=O)N[C@@H](CO)C(N)=O [Parent compound 5]
In vivo
  AUC/Dose: 13.0 kg·h/L
  Cmax/Dose: 0.22 kg/L
  Tmax: 1 h
  half-life: 134 h

## H-A[N(2-Aminoethyl)Gly]([γGlu-C16 diacid])Y[Aib]EGTFTSDYSILLEEQAAREFIEWLLAGGPSK([AEEA-AEEA-γGlu-C16 diacid])GAPPPS-OH [Compound 4]
physchem
  half-life at 100 μM: 97 h

## H-D[N(2-Aminoethyl)Gly]([γGlu-C16 diacid])Y[Aib]EGTFTSDYSILLEEQAAREFIEWLLAGGPSK([AEEA-AEEA-γGlu-C16 diacid])GAPPPS-OH [Compound 7]
physchem
  half-life at 100 μM: 38 h

## H-G[N(2-Aminoethyl)Gly]([γGlu-C16 diacid])Y[Aib]EGTFTSDYSILLEK([εLys-εLys-γGlu-C18 diacid])QAAREFIEWLLAGGPSSGAPPPS-OH [Compound 17]
In vivo
  AUC/Dose: 30.4 kg·h/L
  Cmax/Dose: 0.30 kg/L
  Tmax: 1.5 h
  half-life: 105 h

## H-K([γGlu-C16 diacid])VY[Aib]EGTFTSDYSILLEEQAAREFIEWLLAGGPSK([εLys-εLys-γGlu-C16 diacid])GAPPPS-OH [Non-converting compound 2]
In vivo
  AUC/Dose: 10.8 kg·h/L
  Cmax/Dose: 0.13 kg/L
  Tmax: 1.3 h
  half-life: 130 h

## H-K([γGlu-C16 diacid])VY[Aib]EGTFTSDYSILLEK([εLys-εLys-γGlu-C18 diacid])QAAREFIEWLLAGGPSSGAPPPS-OH [Non-converting compound 3]
In vivo
  AUC/Dose: 31.4 kg·h/L
  Cmax/Dose: 0.27 kg/L
  Tmax: 4 h
  half-life: 115 h

## H-K([γGlu-γGlu-C16 diacid])[Sar]Y[Aib]EGTFTSDYSILLEEQAAREFIEWLLAGGPSK([AEEA-AEEA-γGlu-C16 diacid])GAPPPS-OH [Compound 8]
physchem
  half-life at 100 μM: 125 h

## H-P[N(2-Aminoethyl)Gly]([γGlu-C16 diacid])Y[Aib]EGTFTSDYSILLEEQAAREFIEWLLAGGPSK([AEEA-AEEA-γGlu-C16 diacid])GAPPPS-OH [Compound 6]
physchem
  half-life at 100 μM: 440 h

## H-[dK]([εLys-γGlu-C16 diacid])[Sar]Y[Aib]EGTFTSDYSILLEEQAAREFIEWLLAGGPSK([AEEA-AEEA-γGlu-C16 diacid])GAPPPS-OH [Compound 11]
physchem
  half-life at 100 μM: 182 h
